Among the data in patent US7553848B2, “Vanilloid receptor ligands and their use in treatments” (Amgen Inc., priority 2004, dated 2009) are melting point values, retold here.

Each structure is given as a SMILES string.

For orientation: melting point means the temperature of the solid-liquid transition. `O=C(Nc1ccc2c(c1)OCCO2)c1cc2ncc(C(F)(F)F)cc2s1` [Example 12, 6-Trifluoromethyl-thieno[3,2-b]pyridine-2-carboxylic acid (2,3-dihydro-benzo[1,4]dioxin-6-yl)-amide] had a melting point of 247 °C.
`CC(=O)Nc1nc2c(NC(=O)c3ccc4cc(Br)ccc4c3)cccc2s1` [Example 4, 6-Bromo-naphthalene-2-carboxylic acid (2-acetylamino-benzothiazol-4-yl)-amide]: the melting point stood at 241.6 °C.
The molecule `CC(=O)Nc1nc2c(NC(=O)c3cc4ccc(C(F)(F)F)cc4s3)cccc2s1` had a melting point of 285.4 to 285.9 °C.
The molecule `O=C(Nc1ccc2c(c1)OCCO2)c1ccc2cc(Br)ccc2c1` [Example 14, 6-Bromo-naphthalene-2-carboxylic acid (2,3-dihydro-benzo[1,4]dioxin-6-yl)-amide] gave a melting point of 222.7 °C.
`CC(C)(C)c1ccc2cc(C(=O)Nc3ccc4c(c3)OCCO4)ncc2c1` [Example 11, 7-tert-Butyl-isoquinoline-3-carboxylic acid (2,3-dihydro-benzo[1,4]dioxin-6-yl)-amide] had a melting point of 154 to 157 °C.
The molecule `CC(C)(C)c1ccc2c(c1)CN[C@H](C(=O)Nc1ccc3c(c1)OCCO3)C2.Cl` yielded a melting point of 134 °C.
Molecule `O=C(Nc1ccc2c(c1)OCCO2)c1cnc2cc(C(F)(F)F)ccc2c1Cl` [Example 13, 4-Chloro-7-trifluoromethyl-quinoline-3-carboxylic acid (2,3-dihydro-benzo[1,4]dioxin-6-yl)-amide] showed a melting point of 296 °C.
